Measured values: ChEMBL document CHEMBL2073978, “Interactions of n-tetraalkylammonium compounds and biguanides with a human renal organic cation transporter (hOCT2)” (Pharm Res, 2002)

Experiments:
[1] = molecular target: T1, Solute carrier family 22 member 2 (Homo sapiens, UniProt O15244); assay type: functional, cell-based, Xenopus laevis, Oocyte
T1 sequence (O15244 whole entry): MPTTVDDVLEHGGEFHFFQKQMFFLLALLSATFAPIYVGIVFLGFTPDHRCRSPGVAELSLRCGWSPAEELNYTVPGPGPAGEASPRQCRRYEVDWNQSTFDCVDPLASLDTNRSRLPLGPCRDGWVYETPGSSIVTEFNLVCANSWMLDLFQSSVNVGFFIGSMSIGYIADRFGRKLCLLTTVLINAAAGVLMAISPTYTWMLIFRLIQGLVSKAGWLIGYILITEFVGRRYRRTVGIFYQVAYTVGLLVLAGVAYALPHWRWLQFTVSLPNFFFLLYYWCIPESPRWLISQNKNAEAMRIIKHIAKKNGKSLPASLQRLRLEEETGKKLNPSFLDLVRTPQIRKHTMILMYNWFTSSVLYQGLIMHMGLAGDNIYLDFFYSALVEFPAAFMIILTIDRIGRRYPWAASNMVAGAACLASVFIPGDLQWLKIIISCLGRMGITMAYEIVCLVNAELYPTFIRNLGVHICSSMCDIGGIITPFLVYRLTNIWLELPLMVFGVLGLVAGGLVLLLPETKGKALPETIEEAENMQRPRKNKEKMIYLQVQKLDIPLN

[2] = molecular target: T1, Solute carrier family 22 member 2; experiment: (§1) TP_TRANSPORTER: inhibition of Cimetidine uptake (Cimetidine: 1 uM) in Xenopus laevis oocytes; assay type: functional, cell-based, Oocyte
[3] = molecular target: T2, Solute carrier family 22 member 1 (Homo sapiens, UniProt O15245); experiment: as §1; assay type: functional, cell-based, Oocyte
T2 sequence (O15245 whole entry): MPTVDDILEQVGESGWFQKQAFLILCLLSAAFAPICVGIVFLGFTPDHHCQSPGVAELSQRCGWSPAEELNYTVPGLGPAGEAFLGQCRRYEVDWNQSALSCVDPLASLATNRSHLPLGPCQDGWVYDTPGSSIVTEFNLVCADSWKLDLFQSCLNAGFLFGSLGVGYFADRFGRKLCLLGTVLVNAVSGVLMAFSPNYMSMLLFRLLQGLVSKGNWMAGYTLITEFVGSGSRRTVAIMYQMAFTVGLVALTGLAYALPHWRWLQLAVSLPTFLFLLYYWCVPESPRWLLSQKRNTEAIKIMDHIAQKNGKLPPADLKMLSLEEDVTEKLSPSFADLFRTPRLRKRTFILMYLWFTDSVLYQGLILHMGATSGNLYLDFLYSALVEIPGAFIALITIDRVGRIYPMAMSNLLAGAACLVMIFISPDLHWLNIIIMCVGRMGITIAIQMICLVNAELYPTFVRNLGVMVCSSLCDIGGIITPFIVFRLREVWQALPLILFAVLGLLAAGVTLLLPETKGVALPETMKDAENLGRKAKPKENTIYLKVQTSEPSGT

| SMILES | IC50 [1] | IC50 [2] | IC50 [3] |
| --- | --- | --- | --- |
| CCCC[N+](CCCC)(CCCC)CCCC [TETRABUTHYLAMMONIUM] | 120 µM | – | – |
| [H]/N=C(/N)N/C(=N/[H])NCCc1ccccc1 [PHENFORMIN] | – | 65 µM | 10 µM |
| CN(C)C(=N)N=C(N)N [METFORMIN] | – | 1700 µM | – |
| CC[N+](CC)(CC)CC [TETRYLAMMONIUM] | 156 µM | – | – |
| CCC[N+](CCC)(CCC)CCC [TETRAPROPYLAMMONIUM] | 128 µM | – | – |
